From patent publication US20100063085A1, “METHOD OF TREATING LEARNING IMPAIRMENT IN DOWN'S SYNDROME SUBJECTS” (University Court of The University of Dundee, priority 2008, published 2010)

Assays:
Format in all cases: biochemical
[1] = system: CK2; assay: CK2 33P kinase assay
Protocol: (§1) All assays (25.5 μl) were carried out at room temperature (21° C.) and were linear with respect to time and enzyme concentrations under the conditions used. Assays were performed for 30 minutes except assays for LCK and PKB which were performed for 15 minutes using Multidrop Micro reagent dispensers (Thermo Electron Corporation, Waltham, Mass. 02454, USA) in a 96-well format. The concentration of […] [γ-^33P] ATP (800 cpm/pmol) in the assays was one of three concentrations (5, 20 or 50 μM) in order to be at or below Km for ATP for the enzyme. Assays were initiated with MgATP and stopped by addition of 5 μl of 0.5M orthophosphoric acid. Assays were then harvested onto P81 filterplates using a unifilter harvester (PerkinElmer, Boston, Mass. 02118, USA), with a wash buffer of 50 mM orthophosphoric acid. Filterplates were then air dried overnight. 10 μl of Microscint O was added per well prior to counting for radioactivity.
MKK1, JNK/SAPK1c, SAPK2a/p38, SAPK2b/p38β2, SAPK3/p38γ, SAPK4/p38δ, MAPK2/ERK2, MAPKAP-K1β, MAPKAP-K2, MSK1, PRAK, PKA, PKCα, PDK1, SGK, p70S6K, GSK3β, ROCK-II, PRK2, AMPK, CHK1, CHK2, CK2, PHK, LCK, were assayed according to Davies et al., (Davies, S. P., Reddy, H., Caivano, M. and Cohen, P. Biochem. J. 351, 95-105, 2000.
CSK and CDK2/cyclinA, were assayed according to Bain et al. (Bain J, McLauchlan H, Elliott M, Cohen P. Biochem J. 371, 199-204, 2003., except that ATP concentrations were either 5, 20 or 50 micromolar so that they were at or below the Km for ATP. The ATP concentrations used were as follows, 5 μM for assays of MKK1, SAPK3, SAPK4, GSK3β, PRK2 CK2 20 μm for assays of JNK, SAPK2β, MAPKAP-K2, MSK1, PRAK, PKA, […], PDK1, SGK, p70S6K, ROCK-II, CHK1, CHK2, CSK, CDK2, and 50 μM for assays of SAPK2a, MAPK2/ERK2, AMPK, LCK, PHK and MAPKAP-K1β.

[2] = system: CK1; assay: CK1 33P kinase assay
Protocol: as §1

[3] = target: DYRK3 (Homo sapiens, UniProt O43781); assay: DYRK3 33P kinase assay (analogous to DYRK1a); conditions: ATP at 50 μM; half log dilutions starting at 100 μM
Sequence of DYRK3 (O43781 whole entry, species assumed): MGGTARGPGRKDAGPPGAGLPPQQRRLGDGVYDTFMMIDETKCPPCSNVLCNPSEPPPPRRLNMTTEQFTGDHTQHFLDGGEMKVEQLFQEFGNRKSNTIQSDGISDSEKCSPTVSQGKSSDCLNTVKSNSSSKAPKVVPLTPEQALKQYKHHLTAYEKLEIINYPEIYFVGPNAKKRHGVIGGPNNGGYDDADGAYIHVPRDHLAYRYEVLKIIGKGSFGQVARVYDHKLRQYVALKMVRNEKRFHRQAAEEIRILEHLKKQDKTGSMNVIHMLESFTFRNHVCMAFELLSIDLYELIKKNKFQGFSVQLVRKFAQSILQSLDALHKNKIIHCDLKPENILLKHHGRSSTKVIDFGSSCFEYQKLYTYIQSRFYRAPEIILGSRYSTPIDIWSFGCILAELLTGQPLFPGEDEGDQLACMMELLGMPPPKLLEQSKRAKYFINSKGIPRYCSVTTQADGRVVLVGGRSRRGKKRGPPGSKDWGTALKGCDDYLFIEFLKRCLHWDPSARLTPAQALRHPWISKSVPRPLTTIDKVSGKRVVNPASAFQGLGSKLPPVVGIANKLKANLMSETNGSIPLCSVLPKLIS
Protocol: (§2) DYRK1A (5-20 mU of diluted in 50 mM Tris pH 7.5, 0.1 mM EGTA) was assayed against Woodtide ([…]) in a final volume of 25.5 μl containing 50 mM Tris pH 7.5, 0.1 mM EGTA, 350 uM substrate peptide, 10 mM magnesium acetate and 0.5 μl inhibitor and incubated at room temperature for 5 mins, followed by the addition of 0.05 mM [33P-gamma-ATP] (50-1000 cpm/pmole) and incubated for 30 mins at room temperature. Assays were stopped by addition of 5 μl of 0.5 M (3%) orthophosphoric acid then harvested onto P81 Unifilter plates with a wash buffer of 50 mM orthophosphoric acid. Filterplates were then air dried overnight. 10 μl of Microscint O was added per well prior to counting for radioactivity.

[4] = target: DYRK2 (Homo sapiens, UniProt Q92630); assay: DYRK2 33P kinase assay (analogous to DYRK1a); conditions: ATP at 50 μM; half log dilutions starting at 100 μM
Sequence of DYRK2 (Q92630 whole entry, species assumed): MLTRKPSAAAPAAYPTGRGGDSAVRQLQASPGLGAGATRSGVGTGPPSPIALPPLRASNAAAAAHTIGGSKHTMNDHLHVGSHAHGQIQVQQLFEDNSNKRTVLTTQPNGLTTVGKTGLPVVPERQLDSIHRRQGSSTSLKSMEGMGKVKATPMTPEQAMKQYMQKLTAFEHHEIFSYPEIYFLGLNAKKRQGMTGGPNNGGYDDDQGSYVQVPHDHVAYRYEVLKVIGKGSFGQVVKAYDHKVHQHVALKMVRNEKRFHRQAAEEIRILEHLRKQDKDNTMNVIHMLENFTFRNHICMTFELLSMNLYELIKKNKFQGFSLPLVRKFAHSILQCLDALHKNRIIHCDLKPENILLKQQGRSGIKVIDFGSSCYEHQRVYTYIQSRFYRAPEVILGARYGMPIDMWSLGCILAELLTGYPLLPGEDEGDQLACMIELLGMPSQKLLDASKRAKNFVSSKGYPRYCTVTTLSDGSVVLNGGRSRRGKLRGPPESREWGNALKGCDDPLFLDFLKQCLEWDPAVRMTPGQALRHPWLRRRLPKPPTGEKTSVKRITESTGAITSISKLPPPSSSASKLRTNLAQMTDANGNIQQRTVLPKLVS
Protocol: as §2
DYR2 and DYRK3 were assayed in an analogous manner to that described above for DYRK1a.

COc1ccc2c3c([nH]c2c1)C(C)=NCC3 [Harmaline]
CK2 activity as percentage of control without inhibitor ([1]; inhibitor 1 μM): 94%
CK2 activity as percentage of control without inhibitor ([1]; inhibitor 10 μM): 88%
CK1 activity as percentage of control without inhibitor ([2]; inhibitor 1 μM): 84%
CK1 activity as percentage of control without inhibitor ([2]; inhibitor 10 μM): 65%

CC1=NCCc2c1[nH]c1cc(O)ccc21 [Harmalol]
CK2 activity as percentage of control without inhibitor ([1]; inhibitor 1 μM): 55%
CK2 activity as percentage of control without inhibitor ([1]; inhibitor 10 μM): 12%
CK1 activity as percentage of control without inhibitor ([2]; inhibitor 1 μM): 83%
CK1 activity as percentage of control without inhibitor ([2]; inhibitor 10 μM): 48%

COc1ccc2c(c1)[nH]c1c(C)nccc12 [Harmine]
IC50 [3]: 800 nM
IC50 [4]: 900 nM
CK2 activity as percentage of control without inhibitor ([1]; inhibitor 1 μM): 82%
CK2 activity as percentage of control without inhibitor ([1]; inhibitor 10 μM): 41%
CK1 activity as percentage of control without inhibitor ([2]; inhibitor 1 μM): 61%
CK1 activity as percentage of control without inhibitor ([2]; inhibitor 10 μM): 21%
